Reference: US7528274B2, “Acylthiols and component thiol compositions as anti-HIV and anti-retroviral agents” (The United States of America as represented by the …, priority 2001, dated 2009)
Where two headings read alike, the source gives them in different places.

Tests used:
HIV-1RF = experiment: XTT cytoprotection assay, CEM-SS cells infected with HIV-1RF; assay type: cell-based; details: for EC50: read-out: EC50 (50% cytoprotection)
Excerpt: (§1) One exemplary means to determine antiviral activity is with CEM-SS cells and virus (e.g., HIV-1RF) (MOI=0.01) using the XTT (2,3-bis[2-methoxy-4-nitro-5-sulfophenyl]-5-[(phenylamino)carbonyl]-2H-tetrazolium hydroxide) cytoprotection assay, as described by Rice (1993) PNAS 90:9721-9724, and Rice (1997) Antimicrob. Agents Chemother. […] Briefly, cells are infected with HIV-1RF (or other virus to be tested) in the presence of various dilutions of test compounds or control compounds. The cultures are incubated for seven days. […] The cell death is measured by XTT dye reduction. XTT is a soluble tetrazolium dye that measures mitochondrial energy output, similar to MTT. […] Individual assays are done in duplicate using a sister plate method.
as §1, with “{2,3-bis[2-methoxy-4-nitro-5-sulfophenyl]-5- -[(phenylamino)carbonyl]-2H-tetrazolium hydroxide}” for “(2,3-bis[2-methoxy-4-nitro-5-sulfophenyl]-5-[(phenylamino)carbonyl]-2H-tetrazolium hydroxide)”, “Proc. Natl. Acad. Sci. USA 90: 9721-9724,” for “PNAS 90:9721-9724,”, “Agents &” for “Agents”, “and controls.” for “or control compounds.”, “method. […] Compound numbers therein refer to the numbers used in FIG. 1.” for “method.”

[1] = XTT assay, cytotoxicity (cellular growth inhibition) in CEM-SS cells; assay type: cell-based; details: human
Excerpt: as §1
as §1, with “{2,3-bis[2-methoxy-4-nitro-5-sulfophenyl]-5- -[(phenylamino)carbonyl]-2H-tetrazolium hydroxide}” for “(2,3-bis[2-methoxy-4-nitro-5-sulfophenyl]-5-[(phenylamino)carbonyl]-2H-tetrazolium hydroxide)”, “Proc. Natl. Acad. Sci. USA 90: 9721-9724,” for “PNAS 90:9721-9724,”, “Agents &” for “Agents”, “and controls.” for “or control compounds.”, “method. […] Compound numbers therein refer to the numbers used in FIG. 1.” for “method.”

[2] = Human immunodeficiency virus 1, 168 h, HIV-1RF, CEM-SS cells, seven days, XTT
[3] = Human immunodeficiency virus 1, CEM-SS, 168 h

Structure (SMILES)	Therapeutic Index (HIV-1RF; HIV-1RF, CEM-SS cells)	EC50 (HIV-1RF; [2])	IC50 at 7 days [1]	EC50 (HIV-1RF; [3])	EC50 (HIV-1RF; HIV-1RF, CEM-SS cells, seven days, XTT)
NC(=O)CCNC(=O)c1ccccc1SC(=O)c1ccccc1 [Compound 8]	205	3.3 µM	676 µM	–	–
COc1ccccc1C(=O)Sc1ccccc1C(=O)NCCC(N)=O [Compound 9]	298	2.7 µM	790 µM	–	–
COc1cc(C(=O)Sc2ccccc2C(=O)NCCC(N)=O)cc(OC)c1OC [Compound 10]	>53	3.8 µM	> 200 µM	–	–
COc1ccc(C(=O)Sc2ccccc2C(=O)NCCC(N)=O)cc1 [Compound 13]	11	3.7 µM	42 µM	–	–
COc1cccc(C(=O)Sc2ccccc2C(=O)NCCC(N)=O)c1 [Compound 14]	251	2.6 µM	666 µM	–	–
CC(C)(C)C(=O)Sc1cccc(C(=O)NCCC(N)=O)c1 [Compound 17]	–	> 100 µM	112 µM	–	–
NC(=O)CCNC(=O)c1cccc(SC(=O)c2cccnc2)c1 [Compound 18]	>6.7	149 µM	> 1000 µM	–	–
NC(=O)CCNC(=O)c1ccccc1SC(=O)c1cccnc1 [Compound 19]	161	2.9 µM	461 µM	–	–
Cc1cccc(C(=O)Sc2ccccc2C(=O)NCCC(N)=O)c1 [Compound 20]	38	3.6 µM	135 µM	–	–
Cc1ccc(C(=O)Sc2ccccc2C(=O)NCCC(N)=O)cc1 [Compound 21]	38	5.2 µM	197 µM	–	–
Cc1cc(C)c(C(=O)Sc2ccccc2C(=O)NCCC(N)=O)c(C)c1 [Compound 24]	–	–	> 200 µM	–	–
NC(=O)CCNC(=O)c1ccc(Cl)cc1SC(=O)c1cccnc1 [Compound 25]	18	31.8 µM	573 µM	–	–
NC(=O)CCNC(=O)c1ccc(Cl)cc1SC(=O)Cc1ccccc1 [Compound 26]	14	2.5 µM	35 µM	–	–
CC(C)COC(=O)Sc1ccccc1C(=O)N[C@H](C)C(N)=O [Compound 77]	168	1.37 µM	230 µM	–	–
NS(=O)(=O)c1ccc(CNC(=O)c2ccccc2SC(=O)Oc2ccc([N+](=O)[O-])cc2)cc1 [Compound 78]	36	1.58 µM	57 µM	–	–
NC(=O)CNC(=O)c1ccccc1SC(=O)OCCCCCl [Compound 80]	65	3.07 µM	200 µM	–	–
C[C@H](NC(=O)c1ccccc1SC(=O)OCCCCCl)C(N)=O [Compound 81]	97	2.07 µM	200 µM	–	–
C[C@@H](NC(=O)c1ccccc1SC(=O)OCCCCCl)C(N)=O [Compound 82]	68	2.94 µM	200 µM	–	–
CCC(C)C(NC(=O)c1ccccc1SC(=O)OCCCCCl)C(N)=O (stereo not shown) [Compound 83]	59	2.16 µM	128 µM	–	–
NS(=O)(=O)c1ccc(CNC(=O)c2ccccc2SC(=O)OCCCCCl)cc1 [Compound 84]	27	2.36 µM	64.4 µM	–	–
NC(=O)CNC(=O)c1ccccc1SC(=O)NCCCCl [Compound 85]	153	0.72 µM	110 µM	–	–
C[C@H](NC(=O)c1ccccc1SC(=O)NCCCCl)C(N)=O [Compound 86]	140	0.8 µM	112 µM	–	–
C[C@@H](NC(=O)c1ccccc1SC(=O)NCCCCl)C(N)=O [Compound 87]	16	0.71 µM	11.4 µM	–	–
NS(=O)(=O)c1ccc(CNC(=O)c2ccccc2SC(=O)NCCCCl)cc1 [Compound 88]	19	0.48 µM	9 µM	–	–
C[C@@H](NC(=O)c1ccccc1SC(=O)NCCBr)C(N)=O [Compound 89]	8.7	–	8 µM	0.92 µM	–
CCCNC(=O)Sc1ccccc1C(=O)N[C@H](C)C(N)=O [Compound 95]	27	0.85 µM	22.6 µM	–	–

Structure (SMILES)	Therapeutic Index (HIV-1RF; HIV-1RF, CEM-SS cells)	EC50 (HIV-1RF; [2])	IC50 at 7 days [1]	EC50 (HIV-1RF; [3])	EC50 (HIV-1RF; HIV-1RF, CEM-SS cells, seven days, XTT)
CCCNC(=O)Sc1ccccc1C(=O)N[C@@H](C)C(N)=O [Compound 96]	21	1.32 µM	27.5 µM	–	–
CCCNC(=O)Sc1ccccc1C(=O)NCCC(N)=O [Compound 97]	53	0.55 µM	29 µM	–	–
NC(=O)CNC(=O)c1ccccc1SC(=O)OCCBr [Compound 101]	232	1.36 µM	> 316 µM	–	–
NC(=O)CCNC(=O)c1ccccc1SC(=O)OCCBr [Compound 102]	60.6	5.21 µM	> 316 µM	–	–
C[C@@H](NC(=O)c1ccccc1SC(=O)OCCBr)C(N)=O [Compound 103]	76	3.34 µM	254 µM	–	–
C[C@H](NC(=O)c1ccccc1SC(=O)OCCBr)C(N)=O [Compound 104]	160	1.16 µM	186 µM	–	–
NC(=O)CNC(=O)c1ccccc1SC(=O)NCCBr [Compound 110]	3.4	–	5.23 µM	1.53 µM	–
NC(=O)CCNC(=O)c1ccccc1SC(=O)NCCBr [Compound 111]	10	–	4.9 µM	0.48 µM	–
C[C@H](NC(=O)c1ccccc1SC(=O)NCCBr)C(N)=O [Compound 112]	5	–	5.2 µM	1.05 µM	–
CCNC(=O)Sc1ccccc1C(=O)NCCC(N)=O [Compound 113]	148	0.69 µM	103 µM	–	–
CCNC(=O)Sc1ccccc1C(=O)N[C@H](C)C(N)=O [Compound 114]	203	0.42 µM	86 µM	–	–
CCOC(=O)CCNC(=O)Sc1ccccc1C(=O)NCCC(N)=O [Compound 115]	196	0.59 µM	117 µM	–	–
CCOC(=O)CNC(=O)Sc1ccccc1C(=O)N[C@@H](C)C(N)=O [Compound 116]	147	0.53 µM	77.6 µM	–	–
CCCCNC(=O)Sc1ccccc1C(=O)N[C@H](C)C(N)=O [Compound 117]	64	0.51 µM	32.2 µM	–	–
CCCCNC(=O)Sc1ccccc1C(=O)NCCC(N)=O [Compound 118]	74	0.53 µM	38.7 µM	–	–
CCCCCNC(=O)Sc1ccccc1C(=O)N[C@H](C)C(N)=O [Compound 119]	179	0.3 µM	54.4 µM	–	–
CCCCCCNC(=O)Sc1ccccc1C(=O)N[C@H](C)C(N)=O [Compound 121]	107	0.76 µM	81 µM	–	–
CCCCNC(=O)Sc1ccccc1C(=O)NCCS(N)(=O)=O [Compound 130]	0.12	304 µM	37 µM	–	–
NC(=O)C1CN1C(=O)c1ccccc1SC(=O)NC1CCCC1 (stereo not shown) [Compound 132]	–	–	–	–	0.81 µM
CSC(=N)Sc1ccccc1C(=O)N[C@@H](C)C(N)=O [Compound 136]	28.6	0.7 µM	20 µM	–	–
CSC(=N)Sc1ccccc1C(=O)NCCC(N)=O [Compound 137]	28.2	0.71 µM	20 µM	–	–
CSC(=N)Sc1ccccc1C(=O)NCC(N)=O [Compound 138]	31.7	0.63 µM	20 µM	–	–
CSC(=N)Sc1ccccc1C(=O)N[C@H](C)C(N)=O [Compound 139]	37.7	0.53 µM	20 µM	–	–
CC(C)(C)NC(=O)Sc1ccc(Cl)cc1C(=O)NCCC(N)=O [Compound 140]	7.1	1.6 µM	11.3 µM	–	–
CC(C)COC(=O)Sc1ccc(Cl)cc1C(=O)NCCC(N)=O [Compound 141]	17.7	1.13 µM	20 µM	–	–
CC(C)(C)NC(=O)Sc1ccccc1C(=O)NCC(N)=O [Compound 142]	2.9	6.9 µM	20 µM	–	–
